Measured values from patent US7217776B1, “pH-sensitive methacrylic copolymer gels and the production thereof” (Iowa State University Research Foundation, priority 2003, dated 2007).

System: NIH/3T3 mouse fibroblasts
Assay: Cytotoxicity elution test
Format: cell-based
Conditions: 24 hours incubation; 3 mg/L, 0.3 mg/L and 0.03 mg/L
Procedure: Elution tests were performed on one sample of the pentablock material to assess the cytotoxic properties of the pentablock copolymers. Approximately 30 mg of the polymers to be tested were dissolved in 100 ml of low-glucose Dulbecco's modified eagle medium (DMEM, Sigma) with 10% fetal bovine serum (FBS, Sigma), 10 μg/ml insulin (Sigma), 10 units/ml penicillin/streptomycin (Sigma), and 100 μg/ml L-ascorbic acid (Sigma). This solution was diluted to achieve the desired polymer concentration for all tests.
NIH/3T3 mouse fibroblasts were grown in polystyrene flasks until reaching confluence at 150 cells/mm. The growth media was removed from the flasks and replaced with one of the following: DMEM (negative control), DMEM with phenol (positive control), DMEM with the pentablock material. The concentrations of the pentablock material and phenol were 3 mg/L, 0.3 mg/L and 0.03 mg/L.
After 24 hours of incubation in a humidified incubator with 5% CO2 at 37° C. the samples were removed and the media was replaced with Kamovsky's fixative (2.5% glutaraldehyde, 2.0% paraformaldehyde, 0.1M sodium cacodylate) for 12 hours. The samples were then stained with a 20% crystal violet dye (CVD) solution in ethanol for 6 hours followed by dehydration with ethanol. […]

Oc1ccccc1 [phenol]
cytotoxic response (cell density, morphology, adherence relative to controls): result expected for a cytotoxic material
